In data set [1] the test system is L1210. The data set is described as follows: Cytotoxicity against mouse L1210 cells assessed as growth inhibition after 72 hrs. Type of data set: functional. As to conditions: L1210, 72 h, read-out: ED50 (the source's name).
Data set [2] concerns L1210. The data set is described as follows: Antileukemic activity against mouse L1210 cells allografted in ip dosed BDF1 mouse administered 24 hrs. The format is functional.
In data set [3] the test system is L1210. The data set is described as follows: Antileukemic activity against mouse L1210 cells allografted in ip dosed BDF1 mouse assessed as maximum tolerated dose for survival over 30 days administered 24 hrs. The format is functional.
Data set [4] concerns L1210. The data set is described as follows: Ratio of ILSmax to ILS30 for antileukemic activity against mouse L1210 cells allografted in ip dosed BDF1 mouse. Type of data set: functional.
For data set [5], the system named is L1210. The data set is described as follows: Antileukemic activity against mouse L1210 cells allografted in ip dosed BDF1 mouse assessed as survival over 60 days administered 24 hrs. The format is functional. Conditions: read-out: MED.
Data set [6] concerns L1210. The experiment in a line: Antileukemic activity against mouse L1210 cells allografted in BDF1 mouse assessed as increase in life span at 100 mg/kg, ip administered 24 hrs relative to control. As to conditions: route intraperitoneal. The format is functional.
Data set [7] has as its system Mus musculus. The data set is described as follows: Acute toxicity in ip dosed BDF1 mouse. The format is organism-based. As to conditions: in vivo.
For data set [8], the system named is L1210. The experiment in a line: Antileukemic activity against mouse L1210 cells allografted in BDF1 mouse assessed as increase in life span at 200 mg/kg, ip administered 24 hrs relative to control. The format is functional. As to conditions: route intraperitoneal.
For data set [9], the system named is L1210. The experiment in a line: Antileukemic activity against mouse L1210 cells allografted in BDF1 mouse assessed as increase in life span at 20 mg/kg, ip administered 24 hrs relative to control. Conditions: route intraperitoneal. Type of data set: functional.
For data set [10], the system named is Rattus norvegicus. The experiment in a line: Acute toxicity in po dosed Wistar rat. Type of data set: organism-based. As to conditions: in vivo.
The test system of data set [11] is L1210. The experiment in a line: Antileukemic activity against mouse L1210 cells allografted in BDF1 mouse assessed as mean survival time at 100 mg/kg, ip administered 24 hrs (Rvb 4.6 +/- 0.16 days). Type of data set: functional. As to conditions: route intraperitoneal.
Data set [12] has as its system L1210. The data set is described as follows: Antileukemic activity against mouse L1210 cells allografted in BDF1 mouse assessed as mean survival time at 200 mg/kg, ip administered 24 hrs (Rvb 4.6 +/- 0.16 days). Type of data set: functional. Conditions: route intraperitoneal.
The test system of data set [13] is L1210. The data set is described as follows: Antileukemic activity against mouse L1210 cells allografted in iv dosed BDF1 mouse assessed as maximum tolerated dose for survival over 60 days administered 24 hrs. The format is functional.
Data set [14] concerns L1210. The data set is described as follows: Antileukemic activity against mouse L1210 cells allografted in BDF1 mouse assessed as mean survival time at 50 mg/kg, ip administered 24 hrs (Rvb 4.6 +/- 0.16 days). The format is functional. As to conditions: route intraperitoneal.
Data set [15] has as its system Rattus norvegicus. The data set is described as follows: Acute toxicity in ip dosed Wistar rat. Type of data set: organism-based. Conditions: in vivo.
Data set [16] relates to L1210. The data set is described as follows: Ratio of Cmax to Cmin for antileukemic activity against mouse L1210 cells allografted in iv dosed BDF1 mouse assessed as survival over 60 days. The format is functional.
For data set [17], the system named is L1210. The data set is described as follows: Antileukemic activity against mouse L1210 cells allografted in po dosed BDF1 mouse assessed as maximum tolerated dose for survival over 60 days administered 24 hrs. The format is functional.
Data set [18] concerns L1210. The experiment in a line: Antileukemic activity against mouse L1210 cells allografted in BDF1 mouse assessed as increase in life span at 50 mg/kg, ip administered 24 hrs relative to control. The format is functional. Conditions: route intraperitoneal.
Data set [19] has as its system L1210. The experiment in a line: Antileukemic activity against mouse L1210 cells allografted in po dosed BDF1 mouse assessed as survival over 60 days administered 24 hrs. Type of data set: functional. As to conditions: read-out: MED.
Data set [20] has as its system Mus musculus. The data set is described as follows: Acute toxicity in iv dosed BDF1 mouse. Type of data set: organism-based. Conditions: in vivo.
Data set [21] relates to Rattus norvegicus. The experiment in a line: Acute toxicity in iv dosed Wistar rat. Conditions: in vivo. Type of data set: organism-based.
The subject of data set [22] is L1210. The experiment in a line: Ratio of Cmax to Cmin for antileukemic activity against mouse L1210 cells allografted in po dosed BDF1 mouse assessed as survival over 60 days. Type of data set: functional.
Data set [23] relates to L1210. The experiment in a line: Antileukemic activity against mouse L1210 cells allografted in ip dosed BDF1 mouse assessed as maximum tolerated dose for survival over 60 days administered 24 hrs. Type of data set: functional.
For data set [24], the system named is L1210. The data set is described as follows: Ratio of Cmax to Cmin for antileukemic activity against mouse L1210 cells allografted in ip dosed BDF1 mouse assessed as survival over 60 days. Type of data set: functional.
For data set [25], the system named is L1210. The experiment in a line: Antileukemic activity against mouse L1210 cells allografted in iv dosed BDF1 mouse assessed as survival over 60 days administered 24 hrs. Type of data set: functional. As to conditions: read-out: MED.
Data set [26] deals with Mus musculus. The data set is described as follows: Acute toxicity in po dosed BDF1 mouse. The format is organism-based. As to conditions: in vivo.
The test system of data set [27] is L1210. The data set is described as follows: Antileukemic activity against mouse L1210 cells allografted in BDF1 mouse assessed as mean survival time at 20 mg/kg, ip administered 24 hrs (Rvb 4.6 +/- 0.16 days). Type of data set: functional. As to conditions: route intraperitoneal.

In brackets after ≈: the same amount, converted by molar mass.

For the molecule `CCN(CCCl)P1(=O)OCCC(OO)N1CCOS(C)(=O)=O` (stereo unspecified), the EC50 in the data set with L1210 [1] was 0.5 µg/mL (≈ 1.31 µM). In the data set with L1210 [2], this molecule gave an ILS30 of 6 mg/kg. For the same molecule, the ILSmax in the data set with L1210 [3] came to 70 mg/kg. The Ratio with L1210 [4] is on record as 12.
The corresponding values for `CN(CCCl)P1(=O)OCCC(OO)N1CCBr` (stereo unspecified) are 0.5 µg/mL (≈ 1.42 µM), 7 mg/kg, 35 mg/kg and 5.
The like results for `CCS(=O)(=O)OCCN1C(OO)CCOP1(=O)N(C)CCCl` (stereo unspecified) were, in that order, 1 µg/mL (≈ 2.63 µM), 5 mg/kg, 70 mg/kg and 14.
Take `O=P1(NCCCl)OCCC(OO)N1CCCl` (stereo unspecified): the figures for the minimal effective dose in the data set with L1210 [5], in the data set on L1210 [19] and with L1210 [25] were 30 mg/kg, 400 mg/kg and 90 mg/kg, respectively. For the same molecule, the ILS at 100 mg/kg in the data set with L1210 [6] is > 416%. Besides, the LD10 with Mus musculus [7] was 220 mg/kg; in the data set on Rattus norvegicus [10] it was 800 mg/kg; in the data set on Rattus norvegicus [15], 250 mg/kg; with Mus musculus [20], 220 mg/kg; in the data set with Rattus norvegicus [21] it was 250 mg/kg; in the data set with Mus musculus [26] it was 1000 mg/kg. In addition, the ILS at 200 mg/kg with L1210 [8] was > 476%. Moreover, the increase in lifespan (ILS) at 20 mg/kg in the data set on L1210 [9] stood at 93%. Besides, the MST is >23.8 days in the data set on L1210 [11], >26.5 days in the data set on L1210 [12], 12.5 days with L1210 [14] and 8.9 days with L1210 [27]. Also, in the data set with L1210 [1], the EC50 was 1.8 µg/mL (≈ 6.14 µM). For the same molecule, the ILS30 in the data set with L1210 [2] is 15 mg/kg. The results for the MTD in the data set on L1210 [13], with L1210 [17] and with L1210 [23] were 160 mg/kg, 400 mg/kg and 70 mg/kg, respectively. In the data set on L1210 [3], the ILSmax was 100 mg/kg. In addition, the Ratio in the data set with L1210 [4] is reported as 7; in the data set on L1210 [16] it was 1.8; in the data set with L1210 [22], 1; in the data set on L1210 [24] it was 2.3. In addition, the ILS at 50 mg/kg with L1210 [18] was determined as 172%.
Consider `CN(CCBr)P1(=O)OCCC(OO)N1CCOS(C)(=O)=O` (stereo unspecified), for which the EC50 in the data set with L1210 [1] stood at 1 µg/mL (≈ 2.43 µM). In the data set with L1210 [2], this molecule gave an ILS30 of 3 mg/kg. The ILSmax in the data set with L1210 [3] is 60 mg/kg. In addition, the Ratio in the data set on L1210 [4] was determined as 20.
The corresponding values for `CN(CCOS(C)(=O)=O)P1(=O)OCCC(OO)N1CCCl` (stereo unspecified) are 0.5 µg/mL (≈ 1.36 µM), 3 mg/kg, 60 mg/kg and 20.
Turning to `CS(=O)(=O)OCCNP1(=O)OCCC(OO)N1CCOS(C)(=O)=O` (stereo unspecified), the EC50 in the data set with L1210 [1] is 3.9 µg/mL (≈ 9.46 µM). In addition, in the data set with L1210 [2], the ILS30 was 25 mg/kg. Further, the ILSmax in the data set with L1210 [3] was found to be 50 mg/kg. For the same molecule, the Ratio in the data set with L1210 [4] amounted to 2.

By ILS is commonly meant the gain in survival time of treated over control animals, in per cent. Broadly, the MTD is the highest dose tested that stayed within the study's limit of toxicity.

Values taken from ChEMBL document CHEMBL3244168, “Synthesis and antitumor activity of preactivated isophosphamide analogues bearing modified alkylating functionalities” (J Med Chem, 1978).
